Source: PubChem BioAssay (NCI)
Values joined by “and” are separate entries in the source; they are usually repeats but may differ in a detail not shown here. Equal values may be shown once.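 The compound was tested at five concentrations on cells cultured in 96-well plates, with a 48-hour exposure period. GI50 = concentration required for 50% inhibition of growth. TGI: concentration producing complete growth inhibition.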

tested on: MDA-MB-468 breast; test: DTP human tumour cell line panel, 48 h

`OC(c1cc2cc(Br)ccc2c2cc(Br)ccc12)C1CCCCN1` (configuration not stated) and `O=C(Nc1ccc(-c2nc3cc4ccccc4cc3[nH]2)cc1)c1cccc(Br)c1` are within 1.5-fold of each other in GI50: 1.63 µM for the first, 2.41 µM for the second.

Compared with `CNc1ccccc1C(=O)N/N=C/C=C/c1ccccc1`, `CC(=O)Oc1ccccc1C(=O)Nc1ccc(C(=O)/C=C/c2ccncc2)cc1` is 44-fold higher in GI50: 0.503 µM for the first, 22.3 µM for the second.

Going from `Cn1c(C(N)=O)cc2c1-c1nc(Nc3ccccc3)ncc1CCC2` to `Nc1c(C(=O)Nc2ccccc2)sc2nc3c(cc12)CCCCCC3`, the GI50 falls from 3.52 µM to 0.312 µM (11-fold).

First: O=C(Nc1ccc(S(=O)(=O)Nc2nccs2)cc1)c1cccnc1Nc1cccc(Cl)c1
Second: COc1cccc(-c2nn(-c3ccccc3)cc2-c2ccnc(NCCNS(=O)(=O)c3ccc(Cl)cc3)c2)c1
The GI50 of the first is 3.6-fold higher: 13.9 µM for the first, 3.9 µM for the second.

Going from `C=C1C(=O)O[C@H]2[C@H]1CC/C(COC(=O)C(=O)c1c[nH]c3ccccc13)=C\CC[C@@]1(C)O[C@@H]21` to `Cc1ccc(S(=O)ON2CCC(C(=O)O)(c3ccccc3)CC2)cc1` (configuration not stated), the GI50 rises from 1.98 µM to greater than 100 µM.

Going from `CC(C)(C)Nc1nc2c(OCCc3ccccc3)cccn2c1-c1ccccc1Cl` to `COc1ccc(C(=O)Cn2c(C(=O)c3ccc(Cl)cc3)nc3ccccc32)cc1`, the GI50 rises from 2.5 µM to 6.13 µM (2.5-fold).

First: CCN1C(=O)C/C(=C\C(C)=O)Nc2ccccc21
Second: CCn1c(=O)c(-c2ccn[nH]2)cc2c(C)nc(N)nc21
The GI50 of the first is higher: greater than 100 µM for the first, 0.861 µM for the second.

First: O=C(Nc1ccc(Cl)c([N+](=O)[O-])c1)Nc1nc2ccccc2s1
Second: Cc1ccc(Nc2nc(NCCO)c3ccccc3n2)cc1C
The GI50 of the first is 8.8-fold higher: 3.53 µM for the first, 0.402 µM for the second.

`COc1ccc(CN2C(=O)/C(=C\c3cc(OC)c(OC)c(OC)c3)c3cc(OC)ccc32)cc1` and `CCNC(=O)C[C@@H]1N=C(c2ccc(Cl)cc2)c2cc(OC)ccc2-n2c(C)nnc21` are within 1.5-fold of each other in GI50: 1.94 µM for the first, 2.88 µM for the second.

First: Oc1c(CN2CCC(N3CCOCC3)CC2)cc(Cc2cc(CN3CCC(N4CCOCC4)CC3)c(O)c3ncccc23)c2cccnc12
Second: CN1CCN(Cc2ccc(-c3cc4ncnc(Nc5ccc(OCc6cccc(F)c6)c(Cl)c5)c4s3)o2)CC1
The GI50 of the first is 5.8-fold higher: 1.7 µM for the first, 0.292 µM for the second.

First: CC(C)C[C@H](NC(=O)[C@H](Cc1ccccc1)n1ccc(N2CCCCC2)cc1=O)B(O)O
Second: O=[N+]([O-])c1ccc(N2CCN(Cc3ccccc3)CC2)c2c1no[n+]2[O-]
The GI50 of the first is 4.2-fold lower: 0.264 µM for the first, 1.12 µM for the second.

Going from `CCc1ccc(-c2nnc(COc3ccc(-c4nc5ccc(C)cc5[nH]4)cc3OC)o2)cc1` to `COc1ccc(C(=O)Cn2c(C(=O)c3ccc(OC)cc3)nc3ccccc32)cc1`, the GI50 falls from 3.26 µM to 0.431 µM (7.6-fold).

First: N#CC1=C(N)Oc2cc3c(cc2C1c1cccs1)OCO3 (configuration not stated)
Second: CS(=O)(=O)c1ccc(Oc2cc(F)cc(C#N)c2)c2c1[C@H](O)[C@H](F)[C@@H]2F
The GI50 of the first is lower: 0.219 µM for the first, greater than 100 µM for the second.

First: CCCCCCCCCCCCN1C(C)=CS/C1=C\C=C\c1scc(C)[n+]1CCCCCCCCCCCC
Second: CC/C=C\C[C@H](O)C/C=C1/C(=O)C=C[C@@H]1C/C=C\CCCC(=O)NC(C)C
The GI50 of the first is 6.7-fold lower: 0.251 µM for the first, 1.67 µM for the second.

First: Cn1ccnc1C(=O)/C=C/c1ccc(CC(=O)Nc2ccc(Cl)cc2)cc1
Second: O=C(/C=C/c1ccco1)c1ccc(Nc2nc(Nc3ccc(F)cc3)nc(Nc3ccc(Cl)cc3)n2)cc1
The GI50 of the first is 22-fold lower: 1.03 µM for the first, 22.8 µM for the second.

First: CCN(CC)c1ccc(/C=N/NC(=O)c2ccc(S(N)(=O)=O)cc2)cc1
Second: O=C1/C(=C/c2cccc([N+](=O)[O-])c2)COc2ccc(O)c(O)c21
The GI50 of the first is 3.5-fold lower: 0.376 µM for the first, 1.33 µM for the second.

`O=[N+]([O-])c1cnc(Sc2ccncn2)c([N+](=O)[O-])c1` gave a GI50 of 1.72 µM.

First: OC(c1cc2cc(Br)ccc2c2cc(Br)ccc12)C1CCCCN1 (configuration not stated)
Second: O=C(Nc1ccc(-c2nc3cc4ccccc4cc3[nH]2)cc1)c1cccc(Br)c1
The TGI of the first is 2.1-fold lower: 3.08 µM for the first, 6.54 µM for the second.

Going from `CNc1ccccc1C(=O)N/N=C/C=C/c1ccccc1` to `CC(=O)Oc1ccccc1C(=O)Nc1ccc(C(=O)/C=C/c2ccncc2)cc1`, the TGI rises from 15.1 µM to 98 µM (6.5-fold).

Compared with `Cn1c(C(N)=O)cc2c1-c1nc(Nc3ccccc3)ncc1CCC2`, `Nc1c(C(=O)Nc2ccccc2)sc2nc3c(cc12)CCCCCC3` is 4-fold lower in TGI: 15 µM for the first, 3.73 µM for the second.

`O=C(Nc1ccc(S(=O)(=O)Nc2nccs2)cc1)c1cccnc1Nc1cccc(Cl)c1` and `COc1cccc(-c2nn(-c3ccccc3)cc2-c2ccnc(NCCNS(=O)(=O)c3ccc(Cl)cc3)c2)c1` are within 1.5-fold of each other in TGI: 52.2 µM for the first, 64.6 µM for the second.

First: C=C1C(=O)O[C@H]2[C@H]1CC/C(COC(=O)C(=O)c1c[nH]c3ccccc13)=C\CC[C@@]1(C)O[C@@H]21
Second: Cc1ccc(S(=O)ON2CCC(C(=O)O)(c3ccccc3)CC2)cc1 (configuration not stated)
The TGI of the first is lower: 3.84 µM for the first, greater than 100 µM for the second.

First: CC(C)(C)Nc1nc2c(OCCc3ccccc3)cccn2c1-c1ccccc1Cl
Second: COc1ccc(C(=O)Cn2c(C(=O)c3ccc(Cl)cc3)nc3ccccc32)cc1
The TGI of the first is lower: 9.17 µM for the first, greater than 100 µM for the second.

Going from `CCN1C(=O)C/C(=C\C(C)=O)Nc2ccccc21` to `CCn1c(=O)c(-c2ccn[nH]2)cc2c(C)nc(N)nc21`, the TGI falls from greater than 100 µM to 6.25 µM.

Going from `O=C(Nc1ccc(Cl)c([N+](=O)[O-])c1)Nc1nc2ccccc2s1` to `Cc1ccc(Nc2nc(NCCO)c3ccccc3n2)cc1C`, the TGI falls from 9.76 µM to 3.13 µM (3.1-fold).

Compared with `COc1ccc(CN2C(=O)/C(=C\c3cc(OC)c(OC)c(OC)c3)c3cc(OC)ccc32)cc1`, `CCNC(=O)C[C@@H]1N=C(c2ccc(Cl)cc2)c2cc(OC)ccc2-n2c(C)nnc21` is higher in TGI: 4.52 µM for the first, greater than 100 µM for the second.

Compared with `Oc1c(CN2CCC(N3CCOCC3)CC2)cc(Cc2cc(CN3CCC(N4CCOCC4)CC3)c(O)c3ncccc23)c2cccnc12`, `CN1CCN(Cc2ccc(-c3cc4ncnc(Nc5ccc(OCc6cccc(F)c6)c(Cl)c5)c4s3)o2)CC1` is 2-fold lower in TGI: 6.6 µM for the first, 3.22 µM for the second.

Going from `CC(C)C[C@H](NC(=O)[C@H](Cc1ccccc1)n1ccc(N2CCCCC2)cc1=O)B(O)O` to `O=[N+]([O-])c1ccc(N2CCN(Cc3ccccc3)CC2)c2c1no[n+]2[O-]`, the TGI rises from 0.745 µM to 2.68 µM (3.6-fold).

Compared with `CCc1ccc(-c2nnc(COc3ccc(-c4nc5ccc(C)cc5[nH]4)cc3OC)o2)cc1`, `COc1ccc(C(=O)Cn2c(C(=O)c3ccc(OC)cc3)nc3ccccc32)cc1` is higher in TGI: 16.3 µM for the first, greater than 22.8 µM for the second.

Going from `N#CC1=C(N)Oc2cc3c(cc2C1c1cccs1)OCO3` (configuration not stated) to `CS(=O)(=O)c1ccc(Oc2cc(F)cc(C#N)c2)c2c1[C@H](O)[C@H](F)[C@@H]2F`, the TGI rises from 3.03 µM to greater than 100 µM.

Going from `CCCCCCCCCCCCN1C(C)=CS/C1=C\C=C\c1scc(C)[n+]1CCCCCCCCCCCC` to `CC/C=C\C[C@H](O)C/C=C1/C(=O)C=C[C@@H]1C/C=C\CCCC(=O)NC(C)C`, the TGI rises from 1.39 µM to 3.89 µM (2.8-fold).

Compared with `Cn1ccnc1C(=O)/C=C/c1ccc(CC(=O)Nc2ccc(Cl)cc2)cc1`, `O=C(/C=C/c1ccco1)c1ccc(Nc2nc(Nc3ccc(F)cc3)nc(Nc3ccc(Cl)cc3)n2)cc1` is higher in TGI: 11.3 µM for the first, greater than 100 µM for the second.

`CCN(CC)c1ccc(/C=N/NC(=O)c2ccc(S(N)(=O)=O)cc2)cc1` and `O=C1/C(=C/c2cccc([N+](=O)[O-])c2)COc2ccc(O)c(O)c21` are within 1.5-fold of each other in TGI: 3.66 µM for the first, 3.12 µM for the second.

With `O=[N+]([O-])c1cnc(Sc2ccncn2)c([N+](=O)[O-])c1` the TGI was 3.55 µM.

For `COC(=O)/C=C/c1cc(O)c2c(c1)C(C(=O)OC)C(c1ccc(O)c(O)c1)O2` (configuration not stated), the GI50 was 0.521 µM and 0.646 µM.
For `COc1cc(/C=C(/C)[N+](=O)[O-])ccc1O`, the GI50 was 1.58 µM and 1.78 µM.
With `CC(C)C[C@@H](NC(=O)[C@@H](Cc1ccccc1)NC(=O)c1cnccn1)B1O[C@H]2[C@H](O)[C@@H](C(=O)NCCCC[C@@H]3NC(=O)[C@@H](Cc4ccccc4)NC(=O)[C@H](CC(=O)O)NC(=O)CNC(=O)[C@H](CCCN=C(N)N)NC3=O)O[C@@H](CN)[C@H]2O1` the GI50 was 0.00293 µM and 0.005 µM.

In the case of `COC(=O)/C=C/c1cc(O)c2c(c1)C(C(=O)OC)C(c1ccc(O)c(O)c1)O2` (configuration not stated), the TGI is reported as 9.94 µM and 11.3 µM.
`COc1cc(/C=C(/C)[N+](=O)[O-])ccc1O` was tested, and the TGI was 3.2 µM and 3.62 µM.
For `CC(C)C[C@@H](NC(=O)[C@@H](Cc1ccccc1)NC(=O)c1cnccn1)B1O[C@H]2[C@H](O)[C@@H](C(=O)NCCCC[C@@H]3NC(=O)[C@@H](Cc4ccccc4)NC(=O)[C@H](CC(=O)O)NC(=O)CNC(=O)[C@H](CCCN=C(N)N)NC3=O)O[C@@H](CN)[C@H]2O1`, the TGI was 0.00906 µM and 0.00535 µM.
